According to patent publication US6737383B1, “Herbicidal oxadiazolidines” (priority 1999, dated 2004):

How the values were obtained:
[1] = system: crabgrass; assay: Test B pre/postemergence crabgrass; type: in vivo, Digitaria sanguinalis
In short: (§1)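 Response is a visual 0-to-10 score relative to untreated plants, where 0 means no effect and 10 means complete control, taken twelve to sixteen days after application. Treatments went onto soil at planting and onto foliage of 1- to 4-leaf plants, using a surfactant-containing non-phytotoxic solvent.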

[2] = system: giant foxtail; assay: Test B pre/postemergence giant foxtail; type: in vivo, Setaria faberii
In short: as §1

[3] = system: corn; assay: Test B pre/postemergence corn; type: in vivo, Zea mays
In short: as §1

[4] = system: wild oat; assay: Test B pre/postemergence wild oat; type: in vivo, Avena fatua
In short: as §1

[5] = system: wheat; assay: Test B pre/postemergence wheat; type: in vivo, Triticum aestivum
In short: as §1

[6] = system: velvetleaf; assay: Test B pre/postemergence velvetleaf; type: in vivo, Abutilon theophrasti
In short: as §1

[7] = system: soybean; assay: Test B pre/postemergence soybean; type: in vivo, Glycine max
In short: as §1

[8] = system: rape; assay: Test B pre/postemergence rape; type: in vivo, Brassica napus
In short: as §1

[9] = system: blackgrass; assay: Test B pre/postemergence blackgrass; type: in vivo, Alopecurus myosuroides
In short: as §1

[10] = system: morningglory; assay: Test B pre/postemergence morningglory; type: in vivo, Ipomoea hederacea
In short: as §1

[11] = system: bedstraw; assay: Test B pre/postemergence bedstraw; type: in vivo, Galium aparine
In short: as §1

[12] = system: pigweed; assay: Test B pre/postemergence pigweed; type: in vivo, Amaranthus retroflexus
In short: as §1

[13] = system: cocklebur; assay: Test B pre/postemergence cocklebur; type: in vivo, Xanthium strumarium
In short: as §1

[14] = system: purple nutsedge; assay: Test B pre/postemergence purple nutsedge; type: in vivo, Cyperus rotundus
In short: as §1

[15] = system: surinam grass; assay: Test B pre/postemergence surinam grass; type: in vivo, Brachiaria decumbens
In short: as §1

[16] = Postemergence, Rate 1000 g/ha, scale 0 to 10 (0 no effect, 10 complete control)
[17] = Preemergence, Rate 250 g/ha, scale of 0 to 10 where 0 is no effect and 10 is complete control
[18] = Preemergence, Rate 500 g/ha, scale of 0 to 10 where 0 is no effect and 10 is complete control
[19] = Rate 125 g/ha, Postemergence, scale of 0 to 10 where 0 is no effect and 10 is complete control
[20] = Rate 125 g/ha, Preemergence, scale of 0 to 10 where 0 is no effect and 10 is complete control
[21] = Rate 250 g/ha, Postemergence, scale of 0 to 10 where 0 is no effect and 10 is complete control
[22] = Rate 500 g/ha, Postemergence, scale 0 to 10, 0 no effect, 10 complete control
[23] = Rate 1000 g/ha, Preemergence, scale 0 to 10 (0 no effect, 10 complete control)

CCOC(=O)C(C)N(C(=O)n1oc(=O)n(C2CCCCC2)c1=O)c1ccc(F)cc1 (centres unmarked) [Compound 280]
Crabgrass plant response rating [1, 16]: 0
Crabgrass plant response rating [1, 17]: 0
Plant response rating, Crabgrass [1, 18]: 0
Crabgrass plant response rating [1, 19]: 0
Crabgrass plant response rating [1, 20]: 0
Plant response rating, Crabgrass [1, 21]: 0
Crabgrass plant response rating [1, 22]: 0
Plant response rating, Crabgrass [1, 23]: 0
Giant foxtail plant response rating [2, 16]: 0
Giant foxtail plant response rating [2, 17]: 0
Plant response rating, Giant foxtail [2, 18]: 0
Giant foxtail plant response rating [2, 19]: 0
Giant foxtail plant response rating [2, 20]: 0
Plant response rating, Giant foxtail [2, 21]: 0
Giant foxtail plant response rating [2, 22]: 0
Plant response rating, Giant foxtail [2, 23]: 0
Corn plant response rating [3, 16]: 0
Corn plant response rating [3, 17]: 0
Plant response rating, Corn [3, 18]: 0
Corn plant response rating [3, 19]: 0
Corn plant response rating [3, 20]: 0
Plant response rating, Corn [3, 21]: 0
Corn plant response rating [3, 22]: 0
Plant response rating, Corn [3, 23]: 0
Wild oats plant response rating [4, 16]: 0
Wild oats plant response rating [4, 17]: 0
Plant response rating, Wild oats [4, 18]: 0
Wild oats plant response rating [4, 19]: 0
Plant response rating, Wild oats [4, 21]: 0
Wild oats plant response rating [4, 22]: 0
Plant response rating, Wild oats [4, 23]: 0
Wheat plant response rating [5, 16]: 0
Wheat plant response rating [5, 17]: 0
Plant response rating, Wheat [5, 18]: 0
Wheat plant response rating [5, 19]: 0
Wheat plant response rating [5, 20]: 0
Plant response rating, Wheat [5, 21]: 0
Wheat plant response rating [5, 22]: 0
Plant response rating, Wheat [5, 23]: 0
Velvetleaf plant response rating [6, 16]: 0
Velvetleaf plant response rating [6, 17]: 0
Plant response rating, Velvetleaf [6, 18]: 0
Velvetleaf plant response rating [6, 19]: 0
Velvetleaf plant response rating [6, 20]: 0
Plant response rating, Velvetleaf [6, 21]: 0
Velvetleaf plant response rating [6, 22]: 0
Plant response rating, Velvetleaf [6, 23]: 0
Soybean plant response rating [7, 16]: 5
Soybean plant response rating [7, 17]: 0
Plant response rating, Soybean [7, 18]: 0
Soybean plant response rating [7, 19]: 1
Soybean plant response rating [7, 20]: 0
Plant response rating, Soybean [7, 21]: 3
Soybean plant response rating [7, 22]: 5
Plant response rating, Soybean [7, 23]: 0
Rape plant response rating [8, 16]: 0
Rape plant response rating [8, 17]: 0
Plant response rating, Rape [8, 18]: 0
Rape plant response rating [8, 19]: 0
Rape plant response rating [8, 20]: 0
Plant response rating, Rape [8, 21]: 0
Rape plant response rating [8, 22]: 0
Plant response rating, Rape [8, 23]: 0
Blackgrass plant response rating [9, 16]: 0
Blackgrass plant response rating [9, 17]: 0
Plant response rating, Blackgrass [9, 18]: 0
Blackgrass plant response rating [9, 19]: 0
Blackgrass plant response rating [9, 20]: 0
Plant response rating, Blackgrass [9, 21]: 0
Blackgrass plant response rating [9, 22]: 0
Plant response rating, Blackgrass [9, 23]: 0
Morningglory plant response rating [10, 16]: 0
Morningglory plant response rating [10, 17]: 0
Plant response rating, Morningglory [10, 18]: 0
Morningglory plant response rating [10, 19]: 0
Morningglory plant response rating [10, 20]: 0
Plant response rating, Morningglory [10, 21]: 0
Morningglory plant response rating [10, 22]: 0
Plant response rating, Morningglory [10, 23]: 0
Bedstraw plant response rating [11, 16]: 0
Bedstraw plant response rating [11, 17]: 0
Plant response rating, Bedstraw [11, 18]: 0
Bedstraw plant response rating [11, 19]: 0
Bedstraw plant response rating [11, 20]: 0
Plant response rating, Bedstraw [11, 21]: 0
Bedstraw plant response rating [11, 22]: 0
Plant response rating, Bedstraw [11, 23]: 0
Redroot pigweed plant response rating [12, 16]: 3
Redroot pigweed plant response rating [12, 17]: 0
Plant response rating, Redroot pigweed [12, 18]: 0
Redroot pigweed plant response rating [12, 19]: 0
Redroot pigweed plant response rating [12, 20]: 0
Plant response rating, Redroot pigweed [12, 21]: 0
Redroot pigweed plant response rating [12, 22]: 1
Plant response rating, Redroot pigweed [12, 23]: 0
Cocklebur plant response rating [13, 16]: 0
Cocklebur plant response rating [13, 17]: 0
Plant response rating, Cocklebur [13, 18]: 0
Cocklebur plant response rating [13, 19]: 0
Cocklebur plant response rating [13, 20]: 0
Plant response rating, Cocklebur [13, 21]: 0
Cocklebur plant response rating [13, 22]: 0
Plant response rating, Cocklebur [13, 23]: 0
Nutsedge plant response rating [14, 16]: 0
Nutsedge plant response rating [14, 17]: 0
Plant response rating, Nutsedge [14, 18]: 0
Nutsedge plant response rating [14, 19]: 0
Nutsedge plant response rating [14, 20]: 0
Plant response rating, Nutsedge [14, 21]: 0
Nutsedge plant response rating [14, 22]: 0
Plant response rating, Nutsedge [14, 23]: 0
B. signalgrass plant response rating [15, 16]: 0
B. signalgrass plant response rating [15, 17]: 0
Plant response rating, B. signalgrass [15, 18]: 0
B. signalgrass plant response rating [15, 19]: 0
B. signalgrass plant response rating [15, 20]: 0
Plant response rating, B. signalgrass [15, 21]: 0
B. signalgrass plant response rating [15, 22]: 0
Plant response rating, B. signalgrass [15, 23]: 0
